Among the data in patent publication US7750003B2, “Compounds-943” (AstraZeneca AB, priority 2006, dated 2010) are IC50 values, retold here.

Each structure is given as a SMILES string.

Sequence of recombinant mTOR (FLAG-tagged, residues 1362-2549) (P42345 1362-2549): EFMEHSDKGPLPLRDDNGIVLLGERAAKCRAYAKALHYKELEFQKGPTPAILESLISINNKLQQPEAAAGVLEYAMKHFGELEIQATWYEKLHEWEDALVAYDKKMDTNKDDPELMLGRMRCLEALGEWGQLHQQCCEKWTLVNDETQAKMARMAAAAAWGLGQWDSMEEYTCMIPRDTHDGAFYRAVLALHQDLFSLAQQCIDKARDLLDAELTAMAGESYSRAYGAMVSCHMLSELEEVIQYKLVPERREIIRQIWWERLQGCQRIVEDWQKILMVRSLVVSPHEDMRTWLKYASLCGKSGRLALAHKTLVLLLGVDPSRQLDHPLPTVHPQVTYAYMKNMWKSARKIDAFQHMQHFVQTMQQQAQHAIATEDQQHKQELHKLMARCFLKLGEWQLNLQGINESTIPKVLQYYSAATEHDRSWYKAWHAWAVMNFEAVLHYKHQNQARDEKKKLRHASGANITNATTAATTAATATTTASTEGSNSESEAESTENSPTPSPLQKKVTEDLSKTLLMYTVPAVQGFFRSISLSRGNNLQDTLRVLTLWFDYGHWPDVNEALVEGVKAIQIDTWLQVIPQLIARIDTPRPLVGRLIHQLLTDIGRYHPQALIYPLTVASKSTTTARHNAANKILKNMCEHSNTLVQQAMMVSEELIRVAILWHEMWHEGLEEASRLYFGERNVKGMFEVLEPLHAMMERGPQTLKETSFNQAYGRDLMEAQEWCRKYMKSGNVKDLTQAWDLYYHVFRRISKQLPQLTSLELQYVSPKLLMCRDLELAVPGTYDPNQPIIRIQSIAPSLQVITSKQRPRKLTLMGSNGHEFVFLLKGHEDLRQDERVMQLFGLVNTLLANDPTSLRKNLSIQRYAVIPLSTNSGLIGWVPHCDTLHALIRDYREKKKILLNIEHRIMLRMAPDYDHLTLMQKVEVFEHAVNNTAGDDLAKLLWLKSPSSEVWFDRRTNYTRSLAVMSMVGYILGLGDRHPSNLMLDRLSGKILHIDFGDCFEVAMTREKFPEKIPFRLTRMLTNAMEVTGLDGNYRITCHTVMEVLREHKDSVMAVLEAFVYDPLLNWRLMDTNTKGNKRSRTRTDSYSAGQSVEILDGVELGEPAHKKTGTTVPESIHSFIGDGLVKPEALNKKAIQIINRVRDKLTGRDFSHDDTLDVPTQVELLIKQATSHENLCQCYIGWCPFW

The assay addresses recombinant mTOR (FLAG-tagged, residues 1362-2549) (Homo sapiens, UniProt P42345). The experiment in a line: In vitro mTOR kinase assay (Test (a), AlphaScreen). The class given is biochemical. The settings on record: ATP 20 μM, read-out: Test (a): IC50 versus mTOR kinase. The essentials: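 AlphaScreen read-out: a phospho-T389 p70 S6K antibody on acceptor beads captures the phosphorylated biotin-peptide on donor beads, with signal loss indicating inhibition.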
With `CS(=O)(=O)Cc1cc(N2CCOCC2)nc(-c2ccc(NC(=O)NCc3ccco3)cc2)n1` [Example 7p, 3-(2-furylmethyl)-1-[4-[4-(methylsulfonylmethyl)-6-morpholin-4-yl-pyrimidin-2-yl]phenyl]urea], the half-maximal inhibitory concentration (IC50) (usually the midpoint of a concentration-inhibition curve) is 3800 nM.

For the compound `CC(C)(C)NC(=O)Nc1ccc(-c2nc(CS(C)(=O)=O)cc(N3CCOCC3)n2)cc1` [Example 8a, 1-[4-[4-(methylsulfonylmethyl)-6-morpholin-4-yl-pyrimidin-2-yl]phenyl]-3-tert-butyl-urea], the IC50 turned out to be 470 nM. With `C[C@H]1COCCN1c1cc(CS(C)(=O)=O)nc(-c2cccc(NC(=O)Nc3ccccc3)c2)n1` [Example 3c, 1-[3-[4-[(3S)-3-Methylmorpholin-4-yl]-6-(methylsulfonylmethyl)pyrimidin-2-yl]phenyl]-3-phenyl-urea] the figure was 3300 nM; with `C[C@H]1COCCN1c1cc(C(C)(C)S(C)(=O)=O)nc(N2CCC(NC(=O)NCc3cnn(C)c3)CC2)n1` [Example 24q, 1-[1-[4-[(3S)-3-methylmorpholin-4-yl]-6-(2-methylsulfonylpropan-2-yl)pyrimidin-2-yl]-4-piperidyl]-3-[(1-methylpyrazol-4-yl)methyl]urea], 5800 nM. Consider `COCCNC(=O)Nc1ccc(-c2nc(CS(=O)(=O)c3ccccc3)cc(N3CCOC[C@@H]3C)n2)cc1` [Example 20j, 1-[4-[4-(benzenesulfonylmethyl)-6-[(3S)-3-methylmorpholin-4-yl]pyrimidin-2-yl]phenyl]-3-(2-methoxyethyl)urea], for which the IC50 was determined as 750 nM.

With `CC(=O)Nc1ccc(S(=O)(=O)Cc2cc(N3CCOC[C@@H]3C)nc(-c3ccc(NC(=O)NC4CC4)cc3)n2)cc1` [Example 43c, N-[4-[[2-[4-(cyclopropylcarbamoylamino)phenyl]-6-[(3S)-3-methylmorpholin-4-yl]pyrimidin-4-yl]methylsulfonyl]phenyl]acetamide], the half-inhibitory concentration (IC50) is 13 nM. In the case of `CNC(=O)CS(=O)(=O)Cc1cc(N2CCOC[C@@H]2C)nc(-c2ccc(NC(=O)NC3CC3)cc2)n1` [Example 43a, 2-[[2-[4-(cyclopropylcarbamoylamino)phenyl]-6-[(3S)-3-methylmorpholin-4-yl]pyrimidin-4-yl]methylsulfonyl]-N-methyl-acetamide] it was 87 nM.

Consider `CC(C)S(=O)(=O)Cc1cc(N2CCOC[C@@H]2C)nc(-c2ccc(NC(=O)NC3CC3)cc2)n1` [Example 20r, 3-cyclopropyl-1-[4-[4-[(3S)-3-methylmorpholin-4-yl]-6-(propan-2-ylsulfonylmethyl)pyrimidin-2-yl]phenyl]urea], for which the IC50 was found to be 94 nM.

Turning to `C[C@H]1COCCN1c1cc(CS(=O)(=O)C2CCNC2=O)nc(-c2ccc(NC(=O)Nc3ccccc3)cc2)n1` (stereo partly drawn) [Example 29, 1-[4-[4-[(3S)-3-Methylmorpholin-4-yl]-6-[(2-oxopyrrolidin-3-yl)sulfonylmethyl]pyrimidin-2-yl]phenyl]-3-phenyl-urea], the IC50 is 560 nM.

Regarding `CC(C)S(=O)(=O)Cc1cc(N2CCOC[C@@H]2C)nc(-c2ccc(NC(=O)Nc3ccccc3)cc2)n1` [Example 9, 1-[4-[4-[(3S)-3-Methylmorpholin-4-yl]-6-(propan-2-ylsulfonylmethyl)pyrimidin-2-yl]phenyl]-3-phenyl-urea], the IC50 was determined as 590 nM. Consider `C[C@H]1COCCN1c1cc(C(C)(C)S(C)(=O)=O)nc(-c2ccc(NC(=O)NC3CCN(C)CC3)cc2)n1` [Example 21j, 1-[4-[4-[(3S)-3-methylmorpholin-4-yl]-6-(2-methylsulfonylpropan-2-yl)pyrimidin-2-yl]phenyl]-3-(1-methyl-4-piperidyl)urea], for which the IC50 is 510 nM.

Turning to `CS(=O)(=O)Cc1cc(N2CCOCC2)nc(-c2ccc(NC(=O)N3CCCC(O)C3)cc2)n1` (stereo not shown) [Example 45m, 3-hydroxy-N-[4-[4-(methylsulfonylmethyl)-6-morpholin-4-yl-pyrimidin-2-yl]phenyl]piperidine-1-carboxamide], the IC50 stood at 170 nM. With `Cc1nn(C)c(C)c1NC(=O)Nc1ccc(-c2nc(CS(C)(=O)=O)cc(N3CCOC[C@@H]3C)n2)cc1` [Example 22h, 3-[4-[4-[(3S)-3-methylmorpholin-4-yl]-6-(methylsulfonylmethyl)pyrimidin-2-yl]phenyl]-1-(1,3,5-trimethylpyrazol-4-yl)urea], the IC50 was 1500 nM. In the case of `CCNC(=O)Nc1ncc(-c2nc(N3CCOC[C@@H]3C)cc(C(C)(C)S(C)(=O)=O)n2)s1` [Example 47d, 1-ethyl-3-[5-[4-[(3S)-3-methylmorpholin-4-yl]-6-(2-methylsulfonylpropan-2-yl)pyrimidin-2-yl]-1,3-thiazol-2-yl]urea] it was 970 nM. With `COCCNC(=O)Nc1ccc(-c2nc(CS(=O)(=O)c3ccccc3)cc(N3CCOCC3)n2)cc1` [Example 20e, 3-[4-[4-(benzenesulfonylmethyl)-6-morpholin-4-yl-pyrimidin-2-yl]phenyl]-1-(2-methoxyethyl)urea] the figure was 2100 nM. With `C[C@H]1COCCN1c1cc(CS(C)(=O)=O)nc(-c2ccc(NC(=O)NCCN3CCOCC3)cc2)n1` [Example 35k, 1-[4-[4-[(3S)-3-methylmorpholin-4-yl]-6-(methylsulfonylmethyl)pyrimidin-2-yl]phenyl]-3-(2-morpholin-4-ylethyl)urea] the figure was 1200 nM; with `C[C@H]1COCCN1c1cc(CO)nc(-c2ccc(NC(=O)N(C)C)cc2)n1` [Example 10, 3-[4-[4-(Hydroxymethyl)-6-[(3S)-3-methylmorpholin-4-yl]pyrimidin-2-yl]phenyl]-1,1-dimethyl-urea], 19000 nM; with `C[C@H]1COCCN1c1cc(C(C)(C)S(C)(=O)=O)nc(-c2cnc(NC(=O)NCc3cnn(C)c3)s2)n1` [Example 47c, 1-[5-[4-[(3S)-3-methylmorpholin-4-yl]-6-(2-methylsulfonylpropan-2-yl)pyrimidin-2-yl]-1,3-thiazol-2-yl]-3-[(1-methylpyrazol-4-yl)methyl]urea], 1400 nM. In the case of `C[C@H]1COCCN1c1cc(CS(C)(=O)=O)nc(-c2ccc(NC(=O)NCCc3ccccn3)cc2)n1` [Example 24, 1-[4-[4-[(3S)-3-Methylmorpholin-4-yl]-6-(methylsulfonylmethyl)pyrimidin-2-yl]phenyl]-3-(2-pyridin-2-ylethyl)urea], the IC50 is 340 nM. In the case of `C[C@H]1COCCN1c1cc(CS(C)(=O)=O)nc(-c2ccc(NC(=O)N(C)CCN(C)C)cc2)n1` [Example 35j, 1-(2-dimethylaminoethyl)-1-methyl-3-[4-[4-[(3S)-3-methylmorpholin-4-yl]-6-(methylsulfonylmethyl)pyrimidin-2-yl]phenyl]urea] it was 3600 nM; in that of `CNC(=O)Nc1ccc(-c2nc(CS(=O)(=O)C3CCCCC3)cc(N3CCOC[C@@H]3C)n2)cc1` [Example 19, 1-[4-[4-(Cyclohexylsulfonylmethyl)-6-[(3S)-3-methylmorpholin-4-yl]pyrimidin-2-yl]phenyl]-3-methyl-urea], 250 nM; in that of `CN1CCC(NC(=O)Nc2ccc(-c3nc(N4CCOCC4)cc(C(C)(C)S(C)(=O)=O)n3)cc2)CC1` [Example 21d, 3-(1-methyl-4-piperidyl)-1-[4-[4-(2-methylsulfonylpropan-2-yl)-6-morpholin-4-yl-pyrimidin-2-yl]phenyl]urea], 270 nM. In the case of `C[C@H]1COCCN1c1cc(CO)nc(-c2ccc(NC(=O)Nc3ccccc3)cc2)n1` [Example 6, 1-[4-[4-(Hydroxymethyl)-6-[(3S)-3-methylmorpholin-4-yl]pyrimidin-2-yl]phenyl]-3-phenyl-urea] it was 560 nM. With `C[C@H]1COCCN1c1cc(CS(C)(=O)=O)nc(-c2ccc(NC(=O)NCc3cccnc3)cc2)n1` [Example 24a, 1-[4-[4-[(3S)-3-methylmorpholin-4-yl]-6-(methylsulfonylmethyl)pyrimidin-2-yl]phenyl]-3-(pyridin-3-ylmethyl)urea] the figure was 82 nM; with `CN(CCS(C)(=O)=O)C(=O)Nc1ccc(-c2nc(CS(C)(=O)=O)cc(N3CCOCC3)n2)cc1` [Example 45x, 1-methyl-1-(2-methylsulfonylethyl)-3-[4-[4-(methylsulfonylmethyl)-6-morpholin-4-yl-pyrimidin-2-yl]phenyl]urea], 1100 nM. With `CC(C)NC(=O)Nc1ccc(-c2nc(CS(C)(=O)=O)cc(N3CCOCC3)n2)cc1` [Example 7, 3-[4-[4-(Methylsulfonylmethyl)-6-morpholin-4-yl-pyrimidin-2-yl]phenyl]-1-propan-2-yl-urea], the IC50 was determined as 170 nM. Turning to `CNC(=O)Nc1ccc(-c2nc(CS(=O)(=O)c3nc(C)cs3)cc(N3CCOC[C@@H]3C)n2)cc1` [Example 33h, 3-methyl-1-[4-[4-[(3S)-3-methylmorpholin-4-yl]-6-[(4-methyl-1,3-thiazol-2-yl)sulfonylmethyl]pyrimidin-2-yl]phenyl]urea], the IC50 was determined as 48 nM. As for `C[C@H]1COCCN1c1cc(CS(=O)(=O)c2ccc(F)cc2)nc(-c2ccc(NC(=O)NC3CC3)cc2)n1` [Example 43b, 3-cyclopropyl-1-[4-[4-[(4-fluorophenyl)sulfonylmethyl]-6-[(3S)-3-methylmorpholin-4-yl]pyrimidin-2-yl]phenyl]urea], the 50% inhibitory concentration (IC50) stood at 150 nM.

Regarding `CC(C)S(=O)(=O)Cc1cc(N2CCOCC2)nc(-c2ccc(NC(=O)NC3CC3)cc2)n1` [Example 20m, 3-cyclopropyl-1-[4-[4-morpholin-4-yl-6-(propan-2-ylsulfonylmethyl)pyrimidin-2-yl]phenyl]urea], the IC50 amounted to 81 nM. `CCCNC(=O)Nc1ccc(-c2nc(CS(C)(=O)=O)cc(N3CCOCC3)n2)cc1` [Example 7n, 3-[4-[4-(methylsulfonylmethyl)-6-morpholin-4-yl-pyrimidin-2-yl]phenyl]-1-propyl-urea]: the IC50 turned out to be 200 nM.

For the compound `Cc1cc(-c2nc(CS(C)(=O)=O)cc(N3CCOC[C@@H]3C)n2)ccc1NC(=O)Nc1ccccc1` [Example 3, 1-[2-Methyl-4-[4-[(3S)-3-methylmorpholin-4-yl]-6-(methylsulfonylmethyl)pyrimidin-2-yl]phenyl]-3-phenyl-urea], the IC50 worked out at 1500 nM.
